In patent publication US10093630B2, “Pyrazole compounds and methods of making and using same” (ABIDE THERAPEUTICS, INC., priority 2014, dated 2018):

How the values were obtained:
Experiment in all cases: In vitro competitive activity-based protein profiling (gel-based, FP-Rh or HT-01 probe)
Format in all cases: biochemical
MAGL = biological target: T1, MAGL (Mus musculus, UniProt O35678); settings: for inhibition at 1 µM: 1 μM inhibitor; for inhibition at 1 µM / inhibition at 10 µM: gel-based competitive ABPP; for IC50: mouse brain membrane fraction or cell lysates, 30 min preincubation at 37° C., read-out: Mouse (IC50 value, nM) MAGL; for inhibition at 10 µM: 10 μM inhibitor
T1 construct: Proteomes (mouse brain membrane fraction or cell lysates); from tissue; host or cells: mouse brain membrane fraction (or cell lysates, not specified)
T1 sequence (O35678 1-303): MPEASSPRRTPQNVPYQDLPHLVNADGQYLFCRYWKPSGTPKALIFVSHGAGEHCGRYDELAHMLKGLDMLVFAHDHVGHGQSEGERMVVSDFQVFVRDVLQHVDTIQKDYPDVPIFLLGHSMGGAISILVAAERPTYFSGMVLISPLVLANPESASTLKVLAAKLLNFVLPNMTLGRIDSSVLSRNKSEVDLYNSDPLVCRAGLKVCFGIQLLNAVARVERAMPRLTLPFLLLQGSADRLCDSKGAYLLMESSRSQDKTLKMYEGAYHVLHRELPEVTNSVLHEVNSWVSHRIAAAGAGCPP
Outline: (§1)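 Mouse brain membrane proteome or cell lysate (1.0 mg/mL protein) was preincubated with inhibitor at varying concentrations for 30 min at 37° C, then labelled with FP-Rh or HT-01 for 30 min at 37° C. After SDS-PAGE, residual hydrolase activity was quantified as in-gel fluorescence of each band.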

ABHD6 = biological target: T2, ABHD6 (Mus musculus, UniProt Q8R2Y0); settings: for inhibition at 1 µM: 1 μM inhibitor, read-out: % Inhibition at 1 μM, C = ABHD6; for inhibition at 1 µM / inhibition at 10 µM: gel-based competitive ABPP; for IC50: mouse brain membrane fraction or cell lysates, 30 min preincubation at 37° C., read-out: Mouse (IC50 value, nM) ABHD6; for inhibition at 10 µM: 10 μM inhibitor, read-out: % Inhibition at 10 μM, C = ABHD6
T2 construct: Proteomes (mouse brain membrane fraction or cell lysates); from tissue; host or cells: mouse brain membrane fraction (or cell lysates, not specified)
T2 sequence (Q8R2Y0 1-336): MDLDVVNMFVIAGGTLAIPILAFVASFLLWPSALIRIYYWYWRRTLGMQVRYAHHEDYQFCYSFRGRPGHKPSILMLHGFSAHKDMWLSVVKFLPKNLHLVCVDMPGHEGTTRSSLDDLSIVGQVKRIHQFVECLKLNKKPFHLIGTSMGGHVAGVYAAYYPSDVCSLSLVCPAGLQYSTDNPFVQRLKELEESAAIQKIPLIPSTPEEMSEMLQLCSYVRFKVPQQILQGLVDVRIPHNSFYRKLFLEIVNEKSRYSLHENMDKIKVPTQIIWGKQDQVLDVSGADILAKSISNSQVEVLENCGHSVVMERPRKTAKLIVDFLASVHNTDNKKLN
Outline: as §1

FAAH = biological target: T3, FAAH (Mus musculus, UniProt O08914); settings: for inhibition at 1 µM: 1 μM inhibitor, read-out: % Inhibition at 1 μM, B = FAAH; for inhibition at 1 µM / inhibition at 10 µM: gel-based competitive ABPP; for IC50: mouse brain membrane fraction or cell lysates, 30 min preincubation at 37° C., read-out: Mouse (IC50 value, nM) FAAH; for inhibition at 10 µM: 10 μM inhibitor, read-out: % Inhibition at 10 μM, B = FAAH
T3 construct: Proteomes (mouse brain membrane fraction or cell lysates); from tissue; host or cells: mouse brain membrane fraction (or cell lysates, not specified)
T3 sequence (O08914 1-579): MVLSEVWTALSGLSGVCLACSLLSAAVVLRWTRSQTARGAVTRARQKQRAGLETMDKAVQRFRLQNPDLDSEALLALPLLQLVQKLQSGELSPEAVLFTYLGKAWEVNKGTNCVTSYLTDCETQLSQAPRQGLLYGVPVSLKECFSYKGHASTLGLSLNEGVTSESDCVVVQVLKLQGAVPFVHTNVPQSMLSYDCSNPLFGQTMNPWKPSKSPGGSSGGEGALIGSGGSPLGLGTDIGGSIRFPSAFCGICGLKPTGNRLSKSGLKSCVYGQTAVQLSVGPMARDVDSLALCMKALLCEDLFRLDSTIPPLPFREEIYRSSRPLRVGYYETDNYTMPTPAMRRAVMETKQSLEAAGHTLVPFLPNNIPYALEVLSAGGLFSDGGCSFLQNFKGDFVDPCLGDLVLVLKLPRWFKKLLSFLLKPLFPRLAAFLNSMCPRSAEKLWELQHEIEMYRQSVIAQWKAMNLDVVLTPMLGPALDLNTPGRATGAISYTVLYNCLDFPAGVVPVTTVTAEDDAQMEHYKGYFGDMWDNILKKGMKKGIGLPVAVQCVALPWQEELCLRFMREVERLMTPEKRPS
Outline: as §1

PLA2G7 = biological target: T4, PLA2G7 (Mus musculus, UniProt Q60963); settings: for inhibition at 1 µM: 1 μM inhibitor, read-out: % Inhibition at 1 μM, D = PLA2G7; for inhibition at 1 µM / inhibition at 10 µM: gel-based competitive ABPP; for IC50: mouse brain membrane fraction or cell lysates, 30 min preincubation at 37° C.; for inhibition at 10 µM: 10 μM inhibitor, read-out: % Inhibition at 10 μM, D = PLA2G7
T4 construct: Proteomes (mouse brain membrane fraction or cell lysates); from tissue; host or cells: mouse brain membrane fraction (or cell lysates, not specified)
T4 sequence (Q60963 22-440): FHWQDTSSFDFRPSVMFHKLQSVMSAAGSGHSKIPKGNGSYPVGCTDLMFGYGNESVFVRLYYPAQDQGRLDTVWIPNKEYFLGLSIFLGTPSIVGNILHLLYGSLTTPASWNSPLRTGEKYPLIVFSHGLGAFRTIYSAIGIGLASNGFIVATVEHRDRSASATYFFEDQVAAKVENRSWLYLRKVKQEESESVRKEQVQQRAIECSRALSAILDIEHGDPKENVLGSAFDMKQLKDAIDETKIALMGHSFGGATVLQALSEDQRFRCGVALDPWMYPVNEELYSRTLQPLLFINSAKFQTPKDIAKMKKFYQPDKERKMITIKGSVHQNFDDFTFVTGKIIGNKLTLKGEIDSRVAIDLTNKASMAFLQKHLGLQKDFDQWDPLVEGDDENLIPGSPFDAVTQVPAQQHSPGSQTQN
Outline: as §1

| SMILES | inhibition at 1 µM (MAGL) | IC50 (MAGL) | inhibition at 1 µM (ABHD6) | IC50 (ABHD6) | inhibition at 1 µM (FAAH) | IC50 (FAAH) | inhibition at 1 µM (PLA2G7) | IC50 (PLA2G7) | inhibition at 10 µM (MAGL) | inhibition at 10 µM (ABHD6) | inhibition at 10 µM (FAAH) | inhibition at 10 µM (PLA2G7) |
| --- | --- | --- | --- | --- | --- | --- | --- | --- | --- | --- | --- | --- |
| O=C(N1CCN(Cc2cccc(N3CCOCC3)c2)CC1)n1cc(C(F)(F)F)cn1 [Example 274, (4-(3-Morpholinobenzyl)piperazin-1-yl)(4-(trifluoromethyl)-1H-pyrazol-1-yl)methanone] | > 75% | < 100 nM | > 75% | < 100 nM | > 75% | 100 to 1000 nM | > 75% | < 100 nM | – | – | – | – |
| O=C(N1CCN(Cc2ccccc2Cl)CC1)n1cc(C(F)(F)F)cn1 [Example 275, (4-(2-Chlorobenzyl)piperazin-1-yl)(4-(trifluoromethyl)-1H-pyrazol-1-yl)methanone] | > 75% | < 100 nM | > 75% | < 100 nM | > 75% | < 100 nM | > 75% | < 100 nM | – | – | – | – |
| O=C(N1CCN(Cc2ccccc2F)CC1)n1cc(C(F)(F)F)cn1 [Example 276, (4-(2-Fluorobenzyl)piperazin-1-yl)(4-(trifluoromethyl)-1H-pyrazol-1-yl)methanone] | > 75% | < 100 nM | > 75% | < 100 nM | > 75% | < 100 nM | > 75% | < 100 nM | – | – | – | – |
| Cc1ccccc1CN1CCN(C(=O)n2cc(C(F)(F)F)cn2)CC1 [Example 277, (4-(2-Methylbenzyl)piperazin-1-yl)(4-(trifluoromethyl)-1H-pyrazol-1-yl)methanone] | > 75% | – | > 75% | – | > 75% | – | > 75% | – | – | – | – | – |
| COc1ccccc1CN1CCN(C(=O)n2cc(C(F)(F)F)cn2)CC1 [Example 278, (4-(2-Methoxybenzyl)piperazin-1-yl)(4-(trifluoromethyl)-1H-pyrazol-1-yl)methanone] | > 75% | – | > 75% | – | > 75% | – | > 75% | – | – | – | – | – |
| O=C(N1CCN(Cc2ccccc2C(F)(F)F)CC1)n1cc(C(F)(F)F)cn1 [Example 279, (4-(Trifluoromethyl)-1H-pyrazol-1-yl)(4-(2-(trifluoromethyl)benzyl)piperazin-1-yl)methanone] | > 75% | < 100 nM | > 75% | < 100 nM | > 75% | < 100 nM | > 75% | 100 to 1000 nM | – | – | – | – |
| O=C(N1CCN(Cc2ccccc2N2CCCC2)CC1)n1cc(C(F)(F)F)cn1 [Example 280, (4-(2-(Pyrrolidin-1-yl)benzyl)piperazin-1-yl)(4-(trifluoromethyl)-1H-pyrazol-1-yl)methanone] | > 75% | < 100 nM | > 75% | 100 to 1000 nM | > 75% | 100 to 1000 nM | > 75% | < 100 nM | – | – | – | – |
| O=C(N1CCN(Cc2ccccc2N2CCOCC2)CC1)n1cc(C(F)(F)F)cn1 [Example 281, (4-(2-Morpholinobenzyl)piperazin-1-yl)(4-(trifluoromethyl)-1H-pyrazol-1-yl)methanone] | > 75% | – | > 75% | – | > 75% | – | > 75% | – | – | – | – | – |
| N#Cc1cnn(C(=O)N2CCN(Cc3ccc(C(=O)N4CCCCC4)cc3Cl)CC2)c1 [Example 282, 1-(4-(2-Chloro-4-(piperidine-1-carbonyl)benzyl)piperazine-1-carbonyl)-1H-pyrazole-4-carbonitrile] | > 75% | – | > 75% | – | > 75% | – | > 75% | – | > 75% | > 75% | > 75% | > 75% |
| N#Cc1cnn(C(=O)N2CCN(Cc3ccc(C(=O)N4CCC4)cc3Cl)CC2)c1 [Example 283, 1-(4-(4-(Azetidine-1-carbonyl)-2-chlorobenzyl)piperazine-1-carbonyl)-1H-pyrazole-4-carbonitrile] | > 75% | – | > 75% | – | > 75% | – | > 75% | – | > 75% | > 75% | > 75% | > 75% |
| N#Cc1cnn(C(=O)N2CCN(Cc3ccc(C(=O)N4CCCCC4)cc3F)CC2)c1 [Example 284, 1-(4-(2-Fluoro-4-(piperidine-1-carbonyl)benzyl)piperazine-1-carbonyl)-1H-pyrazole-4-carbonitrile] | > 75% | – | > 75% | – | > 75% | – | > 75% | – | > 75% | > 75% | > 75% | > 75% |
| N#Cc1cnn(C(=O)N2CCN(Cc3ccc(C(=O)N4CCC4)cc3F)CC2)c1 [Example 285, 1-(4-(4-(Azetidine-1-carbonyl)-2-fluorobenzyl)piperazine-1-carbonyl)-1H-pyrazole-4-carbonitrile] | > 75% | – | > 75% | – | > 75% | – | > 75% | – | > 75% | > 75% | > 75% | > 75% |
| NC(=O)c1cnn(C(=O)N2CCN(Cc3cccc(Oc4ccccc4)c3)CC2)c1 [Example 286, 1-(4-(3-phenoxybenzyl)piperazine-1-carbonyl)-1H-pyrazole-4-carboxamide] | > 75% | < 100 nM | > 75% | < 100 nM | > 75% | < 100 nM | 25 to 75% | 100 to 1000 nM | – | – | – | – |
| CNC(=O)c1cnn(C(=O)N2CCN(Cc3cccc(Oc4ccccc4)c3)CC2)c1 [Example 287, N-Methyl-1-(4-(3-phenoxybenzyl)piperazine-1-carbonyl)-1H-pyrazole-4-carboxamide] | > 75% | < 100 nM | > 75% | < 100 nM | > 75% | < 100 nM | > 75% | < 100 nM | – | – | – | – |
| O=C(O)c1cnn(C(=O)N2CCN(Cc3ccc(Cl)cc3)CC2)c1 [Example 288, 1-(4-(4-Chlorobenzyl)piperazine-1-carbonyl)-1H-pyrazole-4-carboxylic acid] | < 25% | – | < 25% | – | 25 to 75% | – | < 25% | – | < 25% | < 25% | > 75% | < 25% |
